Measurements reported in patent US20220313782A1, “METHODS AND COMPOSITIONS INVOLVING TERT ACTIVATING THERAPIES” (BOARD OF REGENTS, THE UNIVERSITY OF TEXAS SYSTEM, priority 2019, published 2022).

Key:
[1] = tested on: Tert gene expression; assay: Tert mRNA levels in cortex and hippocampus of AD mice treated with histone methyltransferase inhibitors; type: in vivo, mouse; conditions: cortex and hippocampus of AD mice (5xFAD), FIG. 1I
From the text: Tert mRNA levels in the cortex of 3xTg-AD and wildtype control (B6129SF2/J) mice (n=4; 3-month-old). (B) Tert mRNA levels in the hippocampus of 5xFAD and wildtype littermate control mice (n=4; 2˜3-month-old). (C) Tert mRNA levels in primary cortical and hippocampal neurons isolated from 3xTg-AD and control mice at DIV 14 (n=3). (D) Tert mRNA levels in primary cortical and hippocampal neurons isolated from 5xFAD and control mice at DIV 14 (n=3). (E) Telomerase activity in hippocampal neurons isolated from 5xFAD and control mice (n=4; 2˜3-month-old). (F) Representative view of H3K9me3 repressive histone mark occupancy in Tert gene of 5xFAD and control mouse primary neurons at DIV 14. […]
Focusing in particular on the neuronal population, the inventors isolated and cultured primary cortical and hippocampal neurons from E18.5-E19.5 AD mouse brains, and Tert mRNA levels were examined at 14 Days in vitro (DIV), by which time the synaptic network is mature. […] To investigate whether reversible H3K9 methylation is involved in the repression of Tert, the inventors assessed the impact of histone methyltransferase inhibitors chaetocin and BIX-01294, the non-selective cofactor-competitive inhibitor and the selective substrate-competitive inhibitor, respectively, in the AD mouse model (Greiner et al., Nat Chem Biol, 2005; Kubicek et al., Mol Cell, 2007; Yuan et al., ACS Chem Biol, 2012). […]

[2] = tested on: H3K9 methylation marks; conditions: peripheral administration; cited from earlier work

Which “Tert gene expression (Tert mRNA levels)” value [1] does the source give for `COc1cc2nc(N3CCCN(C)CC3)nc(NC3CCN(Cc4ccccc4)CC3)c2cc1OC` [BIX-01294] here?
The value was “de-repression of Tert gene expression”.

And the “H3K9 methylation marks in the central nervous system” value [2]?
Its value is “reduce H3K9 methylation marks”.
